Data on 15 compounds can be found in patent US8906911B2, “Chemokine receptor antagonists” (AbbVie Inc., priority 2012, dated 2014).

One experiment deals with human CCR2B (Homo sapiens (Human), UniProt P41597). Kind of experiment: Inhibition of native agonist (human MCP-1)-induced intracellular calcium release, calcium flux assay in CHO cells expressing human CCR2B and Gα16. Type of experiment: cell-based. To be noted: for IC50: read-out: hCCR2B IC50. An excerpt:
(§1) CHO cells expressing human CCR2B were generated as follows. cDNA for human CCR2B (cloned from human blood) was cloned into plasmid pcDNA3.1 (from Invitrogen). The resulting plasmids were separately transfected into CHO cells expressing human Gα16 (from Molecular Devices). […] CHO cells expressing rat CCR2 were generated as follows. cDNA for rat CCR2 (cloned from rat macrophage) was cloned into plasmid pEF-flag (from Chinese Academy of Science). The resulting plasmids were transfected into CHO cells expressing human Gα16 (from […]).
(§2) Inhibition of Native Agonist-Induced Intracellular Calcium Release in Cells Expressing hCCR2B or rCCR2
(§3) Calcium flux assays were performed in CHO cells expressing human CCR2B and Gα16 coupling protein, or rat CCR2 and Gα16 coupling protein. All compounds were dissolved in DMSO and assays run at a final DMSO concentration of 0.25% (v/v). Human MCP-1 was purchased from PeproTech and used at a final assay concentration of 2 nM, while rat MCP-1 was purchased from R&D and used at a final assay concentration of 4 nM. Assays with cells expressing human CCR2B were performed with human MCP-1, while assays with cells expressing rat CCR2 were performed with rat MCP-1.
(§4) Briefly, cells were cultured overnight in a microtiter plate at 8000 per well. The next day, the resultant adherent cells were incubated in assay buffer (20 mM HEPES, pH 7.4, 0.1% bovine serum albumin, and 2.5 mM probenocid in Hank's Buffered Saline Solution) containing Calcium 4 dye (Molecular Probes) at 37° C. for 60 minutes. Calcium flux assays were performed on a FLIPR^Tetra instrument (Molecular Devices) by adding compound to the cells followed by addition of native agonist and measuring the change in fluorescence as a function of time. Maximal and minimal values for fluorescence were determined using native agonist (2 nM MCP-1) for human or rat CCR2, or buffer addition, respectively. Fluorescence values were used to calculate the percent inhibition at a given compound concentration and the data fit to a sigmoidal curve in a semi-log plot to determine IC50 values. The Kb value is calculated as Kb=IC50/(1+[agonist]/EC50), where [agonist] is the concentration of agonist used and EC50 is the agonist potency determined in the previous experiments. Mean Kb values and IC50 of the compounds assayed are reported in Table 2 and Table 3 respectively.
Background: Calcium assays in cells follow changes in intracellular calcium, usually with a dye or a luminescent sensor.

The target of the next experiment is rat CCR2 (Rattus norvegicus (Rat), UniProt O55193). Kind of experiment: Inhibition of native agonist (rat MCP-1)-induced intracellular calcium release, calcium flux assay in CHO cells expressing rat CCR2 and Gα16. Type of experiment: cell-based. As to conditions: read-out: rCCR2 Kb.
Description: as §1, §2, §3, §4

Like-named read-outs stand apart in the source and are kept apart here.

Chain of human CCR2B (P41597 other isoform, or with tags, fused parts or gaps): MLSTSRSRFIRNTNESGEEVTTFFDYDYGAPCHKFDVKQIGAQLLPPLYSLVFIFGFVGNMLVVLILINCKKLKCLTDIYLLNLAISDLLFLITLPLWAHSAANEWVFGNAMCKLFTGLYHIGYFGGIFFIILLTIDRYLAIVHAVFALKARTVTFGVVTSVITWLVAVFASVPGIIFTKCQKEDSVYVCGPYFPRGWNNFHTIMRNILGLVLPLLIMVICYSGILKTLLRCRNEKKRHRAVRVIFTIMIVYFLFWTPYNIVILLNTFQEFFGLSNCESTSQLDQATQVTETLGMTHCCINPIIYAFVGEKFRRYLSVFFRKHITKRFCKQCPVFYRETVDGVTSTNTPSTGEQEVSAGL
Chain of rat CCR2 (O55193 whole entry): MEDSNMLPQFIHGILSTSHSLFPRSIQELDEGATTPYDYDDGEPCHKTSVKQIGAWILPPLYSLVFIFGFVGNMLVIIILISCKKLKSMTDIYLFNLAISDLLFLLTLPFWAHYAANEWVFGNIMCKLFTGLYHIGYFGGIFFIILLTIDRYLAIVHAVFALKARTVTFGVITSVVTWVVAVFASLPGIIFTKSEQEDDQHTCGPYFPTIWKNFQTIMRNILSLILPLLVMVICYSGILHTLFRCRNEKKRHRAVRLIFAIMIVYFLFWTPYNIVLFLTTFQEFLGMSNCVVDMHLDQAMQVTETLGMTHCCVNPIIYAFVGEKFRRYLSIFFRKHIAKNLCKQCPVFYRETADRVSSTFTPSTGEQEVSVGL

`O=C(N1C[C@@H]2C[C@H]1CN2c1cc(C(F)(F)F)ccn1)[C@@]12CCC[C@@H]1C[C@@H](N1CCOCC1)C2` [Example 59, [(2R,3aR,6aR)-2-(morpholin-4-yl)hexahydropentalen-3a(1H)-yl]{(1S,4S)-5-[4-(trifluoromethyl)pyridin-2-yl]-2,5-diazabicyclo[2.2.1]hept-2-yl}methanone]: the IC50 on human CCR2B amounted to 0.83 µM. Besides, the Kb was determined as 0.204 µM on human CCR2B (read-out: hCCR2B Kb) and 0.533 µM on rat CCR2.
For `CO[C@@H]1COCC[C@@H]1N[C@@H]1C[C@H]2CCC[C@@]2(C(=O)N2C[C@@H]3C[C@H]2CN3c2nccc(C(F)(F)F)c2C)C1` (racemic) [Example 38, 1,5-anhydro-2,3-dideoxy-4-O-methyl-3-{[(2R,3aR,6aR)-3a-({(1S,4S)-5-[3-methyl-4-(trifluoromethyl)pyridin-2-yl]-2,5-diazabicyclo[2.2.1]hept-2-yl}carbonyl)octahydropentalen-2-yl]amino}-D-erythro-pentitol], the IC50 on human CCR2B (calcium flux, human MCP-1 2 nM) was 1.6 µM. In addition, the Kb stood at 0.394 µM at human CCR2B (read-out: hCCR2B Kb) and 0.317 µM at rat CCR2.
Consider `CO[C@@H]1COCC[C@@H]1N[C@@H]1C[C@H]2CCC[C@@]2(C(=O)N2C[C@@H]3C[C@H]2CN3c2ccc(Cl)c(C(F)(F)F)c2)C1` [Example 46, 1,5-anhydro-3-{[(2R,3aR,6aR)-3a-({(1S,4S)-5-[4-chloro-3-(trifluoromethyl)phenyl]-2,5-diazabicyclo[2.2.1]hept-2-yl}carbonyl)octahydropentalen-2-yl]amino}-2,3-dideoxy-4-O-methyl-D-erythro-pentitol], for which the Kb stood at 0.004 µM on human CCR2B (read-out: hCCR2B Kb) and 0.003 µM at rat CCR2.
For the compound `COc1ccc(N2C[C@@H]3C[C@H]2CN3C(=O)[C@@]23CCC[C@@H]2C[C@@H](N[C@H]2CCOC[C@H]2OC)C3)cc1C(F)(F)F` [Example 31, 1,5-anhydro-2,3-dideoxy-3-{[(2R,3aR,6aR)-3a-({(1S,4S)-5-[4-methoxy-3-(trifluoromethyl)phenyl]-2,5-diazabicyclo[2.2.1]hept-2-yl}carbonyl)octahydropentalen-2-yl]amino}-4-O-methyl-D-erythro-pentitol], the IC50 on human CCR2B (calcium flux, human MCP-1 2 nM) was 1.02 µM. The Kb turned out to be 0.25 µM on human CCR2B (read-out: hCCR2B Kb) and 0.022 µM at rat CCR2.
Take `CO[C@@H]1COCC[C@@H]1N[C@@H]1C[C@H]2CCC[C@@]2(C(=O)N2C[C@@H]3C[C@H]2CN3c2cc(C#N)cc(C(F)(F)F)c2)C1` [Example 42, 1,5-anhydro-3-{[(2R,3aR,6aR)-3a-({(1S,4S)-5-[3-cyano-5-(trifluoromethyl)phenyl]-2,5-diazabicyclo[2.2.1]hept-2-yl}carbonyl)octahydropentalen-2-yl]amino}-2,3-dideoxy-4-O-methyl-D-erythro-pentitol]: at human CCR2B, the Kb was found to be 0.199 µM and the IC50 came to 0.812 µM. Moreover, the Kb at rat CCR2 stood at 0.026 µM.
Regarding `CO[C@@H]1COCC[C@@H]1N(C)[C@@H]1C[C@H]2CCC[C@@]2(C(=O)N2C[C@@H]3C[C@H]2CN3c2cccc(C(F)(F)F)c2C#N)C1` [Example 54, 1,5-anhydro-3-{[(2R,3aR,6aR)-3a-({(1S,4S)-5-[2-cyano-3-(trifluoromethyl)phenyl]-2,5-diazabicyclo[2.2.1]hept-2-yl}carbonyl)octahydropentalen-2-yl](methyl)amino}-2,3-dideoxy-4-O-methyl-D-erythro-pentitol], on human CCR2B, the IC50 is 2.78 µM. For the same compound, the figures for the Kb on human CCR2B (read-out: hCCR2B Kb) and at rat CCR2 were 0.682 µM and 2.31 µM, respectively.
Turning to `CO[C@@H]1COCC[C@@H]1N[C@@H]1C[C@H]2CCC[C@@]2(C(=O)N2C[C@@H]3C[C@H]2CN3c2cccc(Cl)c2C#N)C1` [Example 44, 1,5-anhydro-3-{[(2R,3aR,6aR)-3a-{[(1S,4S)-5-(3-chloro-2-cyanophenyl)-2,5-diazabicyclo[2.2.1]hept-2-yl]carbonyl}octahydropentalen-2-yl]amino}-2,3-dideoxy-4-O-methyl-D-erythro-pentitol], the IC50 at human CCR2B (calcium flux, human MCP-1 2 nM) came to 1.6 µM. Moreover, the Kb at human CCR2B (read-out: hCCR2B Kb) stood at 0.394 µM; at rat CCR2 it was 0.486 µM.
Consider `CO[C@@H]1COCC[C@H]1N[C@@H]1C[C@H]2CCC[C@@]2(C(=O)N2C[C@H]3C[C@@H]2CN3c2cc(C(F)(F)F)ccn2)C1` [Example 4, 1,5-anhydro-2,3-dideoxy-4-O-methyl-3-{[(2R,3aR,6aR)-3a-({(1R,4R)-5-[4-(trifluoromethyl)pyridin-2-yl]-2,5-diazabicyclo[2.2.1]hept-2-yl}carbonyl)octahydropentalen-2-yl]amino}-D-threo-pentitol], for which the IC50 on human CCR2B (calcium flux, human MCP-1 2 nM) worked out at 25 µM. Besides, the Kb was more than 6.14 µM on human CCR2B (read-out: hCCR2B Kb) and more than 6.94 µM at rat CCR2.
Regarding `O=C(O)c1cccc(C2CCN([C@@H]3C[C@H]4CCC[C@@]4(C(=O)N4C[C@@H]5C[C@H]4CN5c4cc(C(F)(F)F)ccn4)C3)CC2)c1` [Example 10, 3-{1-[(2R,3aR,6aR)-3a-({(1S,4S)-5-[4-(trifluoromethyl)pyridin-2-yl]-2,5-diazabicyclo[2.2.1]hept-2-yl}carbonyl)octahydropentalen-2-yl]piperidin-4-yl}benzoic acid], the IC50 on human CCR2B (calcium flux, human MCP-1 2 nM) was determined as 1.6 µM. The Kb on human CCR2B (read-out: hCCR2B Kb) turned out to be 0.394 µM; at rat CCR2 it was 0.038 µM.
On to `CO[C@@H]1COCC[C@@H]1N(C)[C@@H]1C[C@H]2CCC[C@@]2(C(=O)N2C[C@@H]3C[C@H]2CN3c2cccc(Cl)c2C#N)C1` [Example 58, 1,5-anhydro-3-{[(2R,3aR,6aR)-3a-{[(1S,4S)-5-(3-chloro-2-cyanophenyl)-2,5-diazabicyclo[2.2.1]hept-2-yl]carbonyl}octahydropentalen-2-yl](methyl)amino}-2,3-dideoxy-4-O-methyl-D-erythro-pentitol], for which the IC50 at human CCR2B (calcium flux, human MCP-1 2 nM) was 2.78 µM. Besides, the Kb on human CCR2B (read-out: hCCR2B Kb) was 0.684 µM; on rat CCR2, 0.515 µM.
Turning to `CO[C@@H]1COCC[C@@H]1N[C@@H]1C[C@H]2CCC[C@@]2(C(=O)N2C[C@@H]3C[C@H]2CN3c2ncccc2C(F)(F)F)C1` [Example 33, 1,5-anhydro-2,3-dideoxy-4-O-methyl-3-{[(2R,3aR,6aR)-3a-({(1S,4S)-5-[3-(trifluoromethyl)pyridin-2-yl]-2,5-diazabicyclo[2.2.1]hept-2-yl}carbonyl)octahydropentalen-2-yl]amino}-D-erythro-pentitol], on human CCR2B, the IC50 came to 25 µM. Also, the results for the Kb on human CCR2B (read-out: hCCR2B Kb) and at rat CCR2 were more than 6.14 µM and more than 1.33 µM, respectively.
As for `CO[C@@H]1COCC[C@@H]1N[C@@H]1C[C@H]2CCC[C@@]2(C(=O)N2C[C@@H]3C[C@H]2CN3c2ccnc(Cl)c2)C1` [Example 35, 1,5-anhydro-3-{[(2R,3aR,6aR)-3a-{[(1S,4S)-5-(2-chloropyridin-4-yl)-2,5-diazabicyclo[2.2.1]hept-2-yl]carbonyl}octahydropentalen-2-yl]amino}-2,3-dideoxy-4-O-methyl-D-erythro-pentitol], the IC50 at human CCR2B (calcium flux, human MCP-1 2 nM) worked out at 2.78 µM. Moreover, the Kb on human CCR2B (read-out: hCCR2B Kb) turned out to be 0.682 µM; at rat CCR2, 0.24 µM.
As to `CO[C@@H]1COCC[C@@H]1N[C@@H]1C[C@H]2CCC[C@@]2(C(=O)N2C[C@@H]3C[C@H]2CN3c2cccc(C(F)(F)F)c2C#N)C1` [Example 45, 1,5-anhydro-3-{[(2R,3aR,6aR)-3a-({(1S,4S)-5-[2-cyano-3-(trifluoromethyl)phenyl]-2,5-diazabicyclo[2.2.1]hept-2-yl}carbonyl)octahydropentalen-2-yl]amino}-2,3-dideoxy-4-O-methyl-D-erythro-pentitol], on human CCR2B (calcium flux, human MCP-1 2 nM), the IC50 came to 2.2 µM. In addition, the Kb on human CCR2B (read-out: hCCR2B Kb) was determined as 0.542 µM; at rat CCR2, 0.532 µM.
The corresponding values for `C[C@H]1COCC[C@H]1N[C@@H]1C[C@H]2CCC[C@@]2(C(=O)N2C[C@@H]3C[C@H]2CN3c2cc(C(F)(F)F)ccn2)C1` [Example 62, [(2R,3aR,6aR)-2-{[(3R,4R)-3-methyltetrahydro-2H-pyran-4-yl]amino}hexahydropentalen-3a(1H)-yl]{(1S,4S)-5-[4-(trifluoromethyl)pyridin-2-yl]-2,5-diazabicyclo[2.2.1]hept-2-yl}methanone] are 0.445 µM, 0.109 µM and 0.055 µM.
With `CO[C@@H]1COCC[C@@H]1N[C@@H]1C[C@H]2CCC[C@@]2(C(=O)N2C[C@@H]3C[C@H]2CN3c2cc(C)cc(C(F)(F)F)c2)C1` [Example 24, 1,5-anhydro-2,3-dideoxy-4-O-methyl-3-{[(2R,3aR,6aR)-3a-({(1S,4S)-5-[3-methyl-5-(trifluoromethyl)phenyl]-2,5-diazabicyclo[2.2.1]hept-2-yl}carbonyl)octahydropentalen-2-yl]amino}-D-erythro-pentitol], the IC50 at human CCR2B (calcium flux, human MCP-1 2 nM) is 1.39 µM. Also, the Kb on human CCR2B (read-out: hCCR2B Kb) turned out to be 0.341 µM; at rat CCR2, 0.116 µM.

The IC50 is the concentration that inhibits the measured activity by half.
